# From PubChem BioAssay (NCI)
#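 How tested: cells in 96-well plates exposed to compound for 48 hours at five concentrations. TGI: concentration producing complete growth inhibition.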
# Tests used:
# Experiment in all cases: DTP human tumour cell line panel, 48 h
# [1] = system: 786-0 renal
# [2] = system: A498 renal
# [3] = system: A549 NSCLC
# [4] = system: ACHN renal
# [5] = system: CAKI-1 renal
# [6] = system: CCRF-CEM leukemia
# [7] = system: COLO 205 colon
# [8] = system: DLD-1 colon
# [9] = system: DMS 114 small cell lung
# [10] = system: DMS 273 small cell lung
# [11] = system: EKVX NSCLC
# [12] = system: HCC-2998 colon
# [13] = system: HCT-116 colon
# [14] = system: HCT-15 colon
# [15] = system: HL-60(TB) leukemia
# [16] = system: HOP-62 NSCLC
# [17] = system: HOP-92 NSCLC
# [18] = system: HT29 colon
# [19] = system: IGROV1 ovarian
# [20] = system: K-562 leukemia
# [21] = system: KM12 colon
# [22] = system: KM20L2 colon
# [23] = system: LOX IMVI melanoma
# [24] = system: LXFL 529 NSCLC
# [25] = system: M14 melanoma
# [26] = system: M19-MEL melanoma
# [27] = system: MALME-3M melanoma
# [28] = system: MOLT-4 leukemia
# [29] = system: NCI-H226 lung
# [30] = system: NCI-H23 lung
# [31] = system: NCI-H460 lung
# [32] = system: NCI-H522 lung
# [33] = system: OVCAR-3 ovarian
# [34] = system: OVCAR-4 ovarian
# [35] = system: OVCAR-5 ovarian
# [36] = system: OVCAR-8 ovarian
# [37] = system: RPMI-8226 leukemia
# [38] = system: SF-268 CNS
# [39] = system: SF-295 CNS
# [40] = system: SF-539 CNS
# [41] = system: SK-MEL-2 melanoma
# [42] = system: SK-MEL-28 melanoma
# [43] = system: SK-MEL-5 melanoma
# [44] = system: SK-OV-3 ovarian
# [45] = system: SN12C renal
# [46] = system: SNB-19 CNS
# [47] = system: SNB-75 CNS
# [48] = system: SNB-78 CNS
# [49] = system: SR leukemia
# [50] = system: SW-620 colon
# [51] = system: TK-10 renal
# [52] = system: U251 CNS
# [53] = system: UACC-257 melanoma
# [54] = system: UACC-62 melanoma
# [55] = system: UO-31 renal
# [56] = system: XF 498 CNS
# [57] = system: HOP-18 NSCLC
# [58] = system: RXF 393 renal
smiles,measurement,setting,value
COC(=O)[C@H](C)[C@H]1CC[C@@](C)([C@H]2CC3C(C)(C)[C@H]4CCC(C)=C[C@H]4C[C@@]3(C)O2)OO1 (stereo partly drawn),TGI,[1],20.2 µM
same,TGI,[2],24.1 µM
same,TGI,[3],23.2 µM
same,TGI,[4],23.4 µM
same,TGI,[5],18.2 µM
same,TGI,[6],16.3 µM
same,TGI,[7],23.8 µM
same,TGI,[8],25.9 µM
same,TGI,[9],14.2 µM
same,TGI,[10],26.1 µM
same,TGI,[11],27.6 µM
same,TGI,[12],18.7 µM
same,TGI,[13],22.3 µM
same,TGI,[14],24.2 µM
same,TGI,[15],5.57 µM
same,TGI,[16],37.1 µM
same,TGI,[17],12.4 µM
same,TGI,[18],27.2 µM
same,TGI,[19],11.1 µM
same,TGI,[20],24.2 µM
same,TGI,[21],25.7 µM
same,TGI,[22],27.5 µM
same,TGI,[23],3.5 µM
same,TGI,[24],7.79 µM
same,TGI,[25],25.8 µM
same,TGI,[26],28.8 µM
same,TGI,[27],28.3 µM
same,TGI,[28],25.3 µM
same,TGI,[29],28.9 µM
same,TGI,[30],23.6 µM
same,TGI,[31],4.62 µM
same,TGI,[32],3.32 µM
same,TGI,[33],27.7 µM
same,TGI,[34],30.1 µM
same,TGI,[35],26.2 µM
same,TGI,[36],26.2 µM
same,TGI,[37],18.4 µM
same,TGI,[38],25.9 µM
same,TGI,[39],28.4 µM
same,TGI,[40],28.4 µM
same,TGI,[41],31.4 µM
same,TGI,[42],31 µM
same,TGI,[43],17.8 µM
same,TGI,[44],56.6 µM
same,TGI,[45],24 µM
same,TGI,[46],28.2 µM
same,TGI,[47],18.1 µM
same,TGI,[48],28.9 µM
same,TGI,[49],30.5 µM
same,TGI,[50],27 µM
same,TGI,[51],28.9 µM
same,TGI,[52],26.1 µM
same,TGI,[53],27.5 µM
same,TGI,[54],35.6 µM
same,TGI,[55],19.2 µM
same,TGI,[56],21.8 µM
CC12CC(=O)OC(Cc3ccccc31)O2 (stereo not drawn),TGI,[1],> 100 µM
same,TGI,[3],> 100 µM
same,TGI,[4],> 100 µM
same,TGI,[6],> 100 µM
same,TGI,[7],> 100 µM
same,TGI,[8],> 100 µM
same,TGI,[9],> 100 µM
same,TGI,[10],> 100 µM
same,TGI,[11],> 100 µM
same,TGI,[12],> 100 µM
same,TGI,[13],> 100 µM
same,TGI,[15],> 100 µM
same,TGI,[57],> 100 µM
same,TGI,[16],> 100 µM
same,TGI,[17],> 100 µM
same,TGI,[18],> 100 µM
same,TGI,[19],> 100 µM
same,TGI,[20],> 100 µM
same,TGI,[21],> 100 µM
same,TGI,[22],> 100 µM
same,TGI,[23],> 100 µM
same,TGI,[24],> 100 µM
same,TGI,[25],> 100 µM
same,TGI,[26],> 100 µM
same,TGI,[27],> 100 µM
same,TGI,[28],> 100 µM
same,TGI,[29],> 100 µM
same,TGI,[30],> 100 µM
same,TGI,[31],> 100 µM
same,TGI,[32],> 100 µM
same,TGI,[33],> 100 µM
same,TGI,[36],> 100 µM
same,TGI,[37],> 100 µM
same,TGI,[58],> 100 µM
same,TGI,[38],> 100 µM
same,TGI,[39],> 100 µM
same,TGI,[40],> 100 µM
same,TGI,[41],> 100 µM
same,TGI,[42],> 100 µM
same,TGI,[44],> 100 µM
same,TGI,[45],> 100 µM
same,TGI,[46],> 100 µM
same,TGI,[47],> 100 µM
same,TGI,[48],> 100 µM
same,TGI,[49],> 100 µM
same,TGI,[50],> 100 µM
same,TGI,[51],> 100 µM
same,TGI,[52],> 100 µM
same,TGI,[53],> 100 µM
same,TGI,[54],> 100 µM
same,TGI,[55],> 100 µM
same,TGI,[56],> 100 µM
